Target: T1, GPR139 (Homo sapiens, UniProt Q6DWJ6)
T1 sequence (Q6DWJ6 1-353): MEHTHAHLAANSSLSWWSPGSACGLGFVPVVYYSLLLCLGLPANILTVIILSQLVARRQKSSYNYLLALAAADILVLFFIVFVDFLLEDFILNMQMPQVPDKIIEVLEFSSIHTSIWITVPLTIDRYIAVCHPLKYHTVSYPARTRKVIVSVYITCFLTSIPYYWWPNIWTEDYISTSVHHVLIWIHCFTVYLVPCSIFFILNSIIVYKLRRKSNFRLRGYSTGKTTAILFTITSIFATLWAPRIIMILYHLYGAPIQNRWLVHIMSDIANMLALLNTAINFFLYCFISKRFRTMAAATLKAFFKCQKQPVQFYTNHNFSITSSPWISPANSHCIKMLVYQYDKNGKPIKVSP
Test: Fluo-4 Ca2+-assay in CHO-k1 cells stably expressing GPR139 (CHO-GPR139)
Type: cell-based
Conditions: not given
Experimental: Compound 1a[11] was kindly provided by H. Lundbeck A/S, Denmark. Compound 7c (Enamine no: Z31449867) was tested as a racemate, as the (S)-form described by Janssen et al. was not commercially available. All compounds were dissolved to 20 mM in DMSO (Sigma, D2650) and subsequently diluted in a HEPES buffer (HBSS (Invitrogen, 14025) supplemented with 20 mM HEPES + 1 mM MgCl2 + 1 mM CaCl2, pH = 7.4) to a final concentration 0.5% DMSO in the assay. The DMSO level was kept constant for all concentrations of all compounds. DMSO was confirmed not to have any activity by itself at this concentration. L-Tryptophan (T0254) and L-Phenylalanine (P2126) were obtained from Sigma-Aldrich and dissolved directly in buffer.
All compounds were tested on a CHO-k1 cell line stably expressing GPR139 (CHO-GPR139) kindly provided by H. Lundbeck A/S, Denmark, and also on a CHO-k1 cell line stably expressing the M1 receptor (CHO-M1) (The Missouri S&T cDNA Resource Center, #CEM100TN00) to check for specificity. The CHO-GPR139 was grown in Dulbecco’s modified eagle medium (DMEM) F12-Kaighn’s (Gibco, 21127) supplemented with 10% dialysed fetal bovine serum (Gibco, 26400, United States origin), 1% GlutaMAX^TM-I (100X) (Gibco, 35050), and 100 units/mL penicillin and 100 μg/mL streptomycin (Gibco, 15140) and 1.0 mg/mL geneticin (Invitrogen, 1181103). CHO-M1 was grown in Ham’s F12 (Gibco, 21765) supplemented with 10% fetal bovine serum (Gibco, 10270, South America origin) +100 units/mL penicillin and 100 μg/mL streptomycin (Invitrogen, 15140–122) and 0,25 mg/mL geneticin (Life Technologies, 11811–031). Compound 1a and carbamoylcholine chloride (Sigma-Aldrich, C4382) were used as positive controls in the two cell lines, respectively.
30.000 cells/well were plated in black 96-well plates with flat clear bottoms (Corning, Falcon, 353219) and incubated overnight. The Fluo-4 dye loading solution (Invitrogen, F36206) was prepared according to the manufacturer’s instructions by dissolving it in HEPES buffer supplemented with 2.5 mM probenecid. 50 μL dye loading solution was added to each well. Cells were incubated with the Fluo-4 dye for 60 min at 37 °C, then washed with 100 μL HEPES buffer. 100 μL HEPES buffer supplemented with 2.5 mM probenecid was then added to each well and incubated in 10 minutes at 37 °C before measurement. 33 μL of the test compounds (4x concentrated) were added automatically after baseline measurements. Intracellular calcium change was recorded on a NOVOstar instrument (BMG Labtech) at 37 °C with an excitation filter of 485 nm and an emission filters 520 nm. Data originate from three independent experiments in triplicates.

Structure (SMILES) | fold lower potency than 1a
O=C(Cc1cccc2ccccc12)NNC(=O)c1ccc2c(c1)OCO2 [DL126] | ~ 10 fold
CCn1c(C)nc2cc(C(=O)NNC(=O)Cc3cccc4ccccc34)ccc21 [DL43] | ~ 10 fold

Same assay, conditions: CHO-GPR139, mean of at least three experiments

EC50 | Structure (SMILES)
0.442 µM | O=C(CN1CCCc2ccccc21)NNC(=O)c1ccc2c(c1)OCO2 [DL22]
0.888 µM | O=C(CNC(=O)c1ccc2c(c1)OCO2)NC1CCSc2ccc(F)cc21 (stereo not drawn) [DL130]
0.505 µM | O=C(NCC(=O)N1CCCC1c1ccccc1)c1ccc2c(c1)OCO2 (stereo not drawn) [DL132]
0.431 µM | COc1cc(OC)cc(C(=O)NNC(=O)C2CCCc3ccccc32)c1 (stereo not drawn) [DL24]
0.411 µM | O=C(Cc1cccc2ccccc12)NNC(=O)c1ccc2c(c1)OCO2 [DL126]

Structure (SMILES) | EC50
CCn1c(C)nc2cc(C(=O)NNC(=O)Cc3cccc4ccccc34)ccc21 [DL43] | 0.364 µM

Same assay, conditions: CHO-K1, relative to 1a

Emax | Structure (SMILES)
105% | O=C(CN1CCCc2ccccc21)NNC(=O)c1ccc2c(c1)OCO2 [DL22]
89% | O=C(CNC(=O)c1ccc2c(c1)OCO2)NC1CCSc2ccc(F)cc21 (stereo not drawn) [DL130]
94% | O=C(NCC(=O)N1CCCC1c1ccccc1)c1ccc2c(c1)OCO2 (stereo not drawn) [DL132]
109% | COc1cc(OC)cc(C(=O)NNC(=O)C2CCCc3ccccc32)c1 (stereo not drawn) [DL24]
91% | O=C(Cc1cccc2ccccc12)NNC(=O)c1ccc2c(c1)OCO2 [DL126]

Structure (SMILES) | Emax
CCn1c(C)nc2cc(C(=O)NNC(=O)Cc3cccc4ccccc34)ccc21 [DL43] | 97%

Target: T2, M1 receptor (Homo sapiens, UniProt P11229)
T2 construct: host or cells: CHO-k1
T2 sequence (P11229 1-460): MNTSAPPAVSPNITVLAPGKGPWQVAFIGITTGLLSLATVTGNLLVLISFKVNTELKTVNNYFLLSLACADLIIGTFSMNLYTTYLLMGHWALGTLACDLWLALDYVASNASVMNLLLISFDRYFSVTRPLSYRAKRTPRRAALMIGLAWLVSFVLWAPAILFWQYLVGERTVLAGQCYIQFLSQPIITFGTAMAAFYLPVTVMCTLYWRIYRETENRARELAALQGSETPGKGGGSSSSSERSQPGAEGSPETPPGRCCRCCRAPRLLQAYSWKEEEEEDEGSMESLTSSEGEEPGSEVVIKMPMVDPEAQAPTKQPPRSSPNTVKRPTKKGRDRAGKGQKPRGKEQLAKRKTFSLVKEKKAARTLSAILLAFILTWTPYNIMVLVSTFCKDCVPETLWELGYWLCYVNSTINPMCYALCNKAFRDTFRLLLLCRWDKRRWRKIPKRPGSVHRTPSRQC
Test: IP-One HTRF assay in CHO-M1 (control)
Type: cell-based
Conditions: not given
Experimental: Figure 3 IP-One HTRF® assay measuring Gq activation. Concentration-response curves of 1a, 7c (racemic), L-Trp, L-Phe, DL43, DL126, DL24, DL22, DL132 and DL130 on (A) CHO-139 and (B) CHO-M1 in the IP-One assay (final conc of LiCl = 20 mM). The dotted line represent the [IP1] response from (A) 10 μM 1a and (B) 1 μM carbachol, which is an agonist for the muscarinic acethylcholine receptor M1 that activates the Gq coupled pathway. The graphs are means ± SEM based on three independent experiments performed in triplicates.
The IP-One assay was performed as described in the work by Thomsen et al.[28], with few modifications. Breifly, CHO-139 and CHO-M1 were detached and re-suspended to a concentration of 10 million cells/mL. 5 μL 2x concentrated compound (+40 mM LiCl) and 5 μL cell suspension (50,000 cells/well) was mixed. The plate was sealed and incubated at 37 °C for 1 hour. Next, 10 μL detection reagents (lysis buffer containing 2.5% Eu^3+-anti-IP1 antibody and 2.5% IP1-d2) was added and the plate was incubated for 1 hour at room temperature. The plate was read on an Envision (PerkinElmer, Waltham, MA, USA). The time resolved-fluorescence resonance energy transfer (TR-FRET) 665 nm/615 nm ratio, which is inversely proportional to the inositol monophosphate (IP1) accumulation, was used to determine the concentration of the IP1 response.

IP1 response in CHO-M1 cells | Structure (SMILES)
no response is seen in CHO-M1 cells | O=C(CN1CCCc2ccccc21)NNC(=O)c1ccc2c(c1)OCO2 [DL22]
no response is seen in CHO-M1 cells | O=C(CNC(=O)c1ccc2c(c1)OCO2)NC1CCSc2ccc(F)cc21 (stereo not drawn) [DL130]
no response is seen in CHO-M1 cells | O=C(NCC(=O)N1CCCC1c1ccccc1)c1ccc2c(c1)OCO2 (stereo not drawn) [DL132]
no response is seen in CHO-M1 cells | COc1cc(OC)cc(C(=O)NNC(=O)C2CCCc3ccccc32)c1 (stereo not drawn) [DL24]
no response is seen in CHO-M1 cells | O=C(Cc1cccc2ccccc12)NNC(=O)c1ccc2c(c1)OCO2 [DL126]

Structure (SMILES) | IP1 response in CHO-M1 cells
CCn1c(C)nc2cc(C(=O)NNC(=O)Cc3cccc4ccccc34)ccc21 [DL43] | no response is seen in CHO-M1 cells

From publication PMC5103216, “Novel Agonist Bioisosteres and Common Structure-Activity Relationships for The Orphan G Protein-Coupled Receptor GPR139” (Scientific Reports, 2016)
